16 compounds from patent publication US8378104B2 (OSI Pharmaceuticals, LLC, priority 2010, dated 2013) can be followed below.

In one assay the test system is p-p38 in HCT-116 cells. Put plainly: Phospho-p38 Meso Scale ELISA assay, TNFα-stimulated HCT-116 cells. It counts as cell-based. The conditions noted are these: Homo sapiens, read-out: mean HCT-116 p-p38 ELISA IC50 (Col. C). The procedure: Detailed below are ELISA assays for pJNK and p38, and a TAK1 biochemical assay. […] In Table 1, Col.
• 1. Plate HCT-116 cells at 25,000 per well in 100 uL in 96 well clear dishes in normal growth medium. Day 2: • 1. Aspirate medium and replace with 90 μl reduced serum growth medium (1% FCS), incubate for 2 hours at 37° C. • 2. Make drugs at 10× in reduced serum medium and add 10 uL per well. • 3. Incubate at 37° C. for 4 hrs. • 4. Bring capture plates to room temperature. • 5. Block with 150 μl Blocking Solution (provided with kit) (600 mg Blocker A into 20 mL 1× Wash Buffer per plate) at room temperature with shaking. • 6. Wash plates 4× with 200 μl 1× wash buffer (10× provided with kit) before transferring lysates. • 7. Dilute TNFα to […] in reduced serum medium (this makes a 10× working stock). • 8. Add 10 μl TNFα to all wells except negative control wells, final concentration is 10 ng/mL. • 9. Incubate at 37° C. for 10 minutes. • 10. Remove medium by flicking into sink • 11. Wash cells with 100 uL ice cold PBS. • 12. Remove PBS by flicking into sink and patting on paper towels. • 13. Lyse cells in 50 μl ice cold 1× Complete Lysis Buffer plus Phosphatase and Protease inhibitors (all provided with kit) (10 mL Tris Lysis Buffer+200 μl Protease inhibitor solution+100 μl Phosphatase inhibitor I+100 μl Phosphatase inhibitor II). • 14. Incubate with shaking at 4° C. for 30 minutes. • 15. Transfer 45 μl to capture plate, cover with adhesive cover, and incubate at 4° C. over night with shaking. • Day 3: • 1. Wash plates 4× with 200 μl 1× wash buffer (10× provided with kit). • 2. […] Incubate at room temperature with shaking for 1 hour. • 4. Wash 4× with 200 μl 1× Wash Buffer. • 5. […] Read on Sector Imager. Phospho-p38 Meso Scale ELISA Assay Day 1: • 1. Plate HCT-116 cells at 25,000 per well in 100 uL in 96 well clear dishes in normal growth medium. zday 2: • 1. Aspirate medium and replace with 90 μl reduced serum growth medium (1% FCS), incubate for 2 hours at 37° C. • 2. Make drugs at 10× in reduced serum medium and add 10 uL per well. • 3. Incubate at 37° C. for 4 hrs. • 4. Bring capture plates to room temperature. • 5. Block with 150 μl Blocking Solution (provided with kit) (600 mg Blocker A into 20 mL 1× Wash Buffer per plate) at room temperature with shaking. • 6. Wash plates 4× with 200 μl 1× wash buffer (10× provided with kit) before transferring lysates. • 7. Dilute TNFα to […] in reduced serum medium (this makes a 10× working stock). • 8. Add 10 μl TNFα to all wells except negative control wells, final concentration is 10 ng/mL. • 9. Incubate at 37° C. for 10 minutes. • 10. Remove medium by flicking into sink • 11. Wash cells with 100 uL ice cold PBS. • 12. Remove PBS by flicking into sink and patting on paper towels. • 13. Lyse cells in 50 μl ice cold 1× Complete Lysis Buffer plus phosphatase and protease inhibitors (all provided with kit) (10 mL Tris Lysis Buffer+200 μl Protease inhibitor solution+100 μl Phosphatase inhibitor I+100 μl Phosphatase inhibitor II). • 14. Incubate with shaking at 4° C. for 30 minutes. • 15. Dilute lysates before transferring to capture plate with 100 μl Complete p38 Lysate • Dilution Buffer (provided with kit) (10 mL of Diluent 20±200 μl Protease inhibitor solution+100 μl Phosphatase inhibitor I+100 μl Phosphatase inhibitor II). • 16. Transfer 50 μl of diluted lysates to capture plate, cover with adhesive cover, and incubate at 4° C. over night with shaking. Day 3: • 1. Wash plates 4× with 200 μl 1× wash buffer (10× provided with kit). • 2. […] Incubate at room temperature with shaking for 1 hour. • 4. Wash 4× with 200 μl 1× Wash Buffer. • 5. […] Read on Sector Imager. TAK1 Biochemical Assay
Background: ELISA stands for enzyme-linked immunosorbent assay.

Another assay has as its system pJNK in HCT-116 cells. Put plainly: Phospho-JNK (Thr183/Tyr185) Meso Scale ELISA assay, TNFα-stimulated HCT-116 cells. It counts as cell-based. The note with it: Homo sapiens, read-out: mean HCT-116 pJNK ELISA IC50 (Col. B). Summed up:
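HCT-116 cells in 1% FCS medium were pretreated with compound for 4 hrs at 37° C, then stimulated with TNFα at 10 ng/mL final for 10 minutes. Lysates were taken in ice-cold lysis buffer with phosphatase and protease inhibitors, and phospho-JNK (Thr183/Tyr185) was measured by Meso Scale ELISA.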

In the next assay the target is T1, TAK1-TAB1 fusion protein (Homo sapiens, UniProt O43318).
T1 construct: purchased Carna
T1 sequence (O43318 with tags, fused parts or gaps limits assumed): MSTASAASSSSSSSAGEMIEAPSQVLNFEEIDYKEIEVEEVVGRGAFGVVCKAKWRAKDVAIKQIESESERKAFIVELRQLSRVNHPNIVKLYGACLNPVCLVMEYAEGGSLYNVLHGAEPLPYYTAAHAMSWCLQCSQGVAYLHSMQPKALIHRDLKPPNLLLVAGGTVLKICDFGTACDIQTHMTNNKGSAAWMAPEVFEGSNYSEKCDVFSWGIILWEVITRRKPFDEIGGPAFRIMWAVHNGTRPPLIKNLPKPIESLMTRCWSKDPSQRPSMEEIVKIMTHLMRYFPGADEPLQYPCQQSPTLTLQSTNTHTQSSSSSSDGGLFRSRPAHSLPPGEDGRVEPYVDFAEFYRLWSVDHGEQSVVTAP
Put plainly: TAK1 biochemical assay (AlphaScreen, GST-MAP2K7 substrate). The note with it: TAK1-TAB1 fusion protein, GST-MAP2K7 substrate; read-out: mean TAK1 IC50 (Col. A). (In general: Alpha assays give light when donor and acceptor beads are brought close together.)

Consider `CC(=O)N1CC(n2cc(-c3cnc(N)c4oc(-c5csc6cnccc56)cc34)cn2)C1` [Example 316, 1-{3-[4-(7-amino-2-thieno[2,3-c]pyridin-3-yl-furo[2,3-c]pyridin-4-yl)-pyrazol-1-yl]-azetidin-1-yl}-ethanone], for which the IC50 in the assay on p-p38 in HCT-116 cells is 0.1 to 1 µM; with pJNK in HCT-116 cells, 0.1 to 1 µM; at TAK1-TAB1 fusion protein it was < 0.1 µM.
With `CC(C)n1cc(-c2cnc(N)c3oc(-c4c[nH]c5cnccc45)cc23)cn1` [Example 90, 4-[1-(propan-2-yl)-1H-pyrazol-4-yl]-2-(1H-pyrrolo[2,3-c]pyridin-3-yl)furo[2,3-c]pyridin-7-amine], the IC50 was < 0.1 µM in the assay on p-p38 in HCT-116 cells, 0.1 to 1 µM in the assay with pJNK in HCT-116 cells and < 0.1 µM at TAK1-TAB1 fusion protein.
With `CC(=O)N1CCC(n2cc(-c3cnc(N)c4oc(-c5cccc6[nH]ncc56)cc34)cn2)CC1` [Example 177, 1-(4-{4-[7-amino-2-(1H-indazol-4-yl)furo[2,3-c]pyridin-4-yl]-1H-pyrazol-1-yl}piperidin-1-yl)ethanone], the figures for the IC50 in the assay with p-p38 in HCT-116 cells, in the assay with pJNK in HCT-116 cells and on TAK1-TAB1 fusion protein were 0.1 to 1 µM, 0.1 to 1 µM and < 0.1 µM, respectively.
As for `CC(=O)N1CCC(n2cc(-c3cnc(N)c4oc(-c5c[nH]c6cc(F)ccc56)cc34)cn2)CC1` [Example 213, 1-(4-{4-[7-amino-2-(6-fluoro-1H-indol-3-yl)furo[2,3-c]pyridin-4-yl]-1H-pyrazol-1-yl}piperidin-1-yl)ethanone], the IC50 in the assay on p-p38 in HCT-116 cells, with pJNK in HCT-116 cells and on TAK1-TAB1 fusion protein was 0.1 to 1 µM throughout.
`CC(=O)N1CCC(n2cc(-c3cnc(N)c4oc(-c5ccc6c(cnn6C)c5)cc34)cn2)CC1` [Example 146, 1-(4-{4-[7-amino-2-(1-methyl-1H-indazol-5-yl)furo[2,3-c]pyridin-4-yl]-1H-pyrazol-1-yl}piperidin-1-yl)ethanone]: the IC50 was in the range of 1 to 10 µM with p-p38 in HCT-116 cells, 0.1 to 1 µM with pJNK in HCT-116 cells and 1 to 10 µM on TAK1-TAB1 fusion protein.
Take `Nc1ncc(-c2cnn([C@H]3CC[C@H](O)CC3)c2)c2cc(-c3ccc4[nH]ncc4c3)oc12` [Example 402, trans-4-{4-[7-amino-2-(1H-indazol-5-yl)furo[2,3-c]pyridin-4-yl]-1H-pyrazol-1-yl}cyclohexanol]: the 50% inhibitory concentration (IC50) fell in the range of 1 to 10 µM in the assay on p-p38 in HCT-116 cells, 0.1 to 1 µM in the assay with pJNK in HCT-116 cells and 0.1 to 1 µM on TAK1-TAB1 fusion protein.
On to `CC(=O)N1CCC(n2cc(-c3cnc(N)c4oc(-c5cccn6ccnc56)cc34)cn2)CC1` [Example 221, 1-(4-{4-[7-amino-2-(imidazo[1,2-a]pyridin-8-yl)furo[2,3-c]pyridin-4-yl]-1H-pyrazol-1-yl}piperidin-1-yl)ethanone bis(trifluoroacetate)], for which the IC50 in the assay with p-p38 in HCT-116 cells, with pJNK in HCT-116 cells and on TAK1-TAB1 fusion protein was 0.1 to 1 µM in each case.
`CC(=O)N1CCC(n2cc(-c3cnc(N)c4oc(-c5ccccc5CC#N)cc34)cn2)CC1` [Example 215, (2-{4-[1-(1-acetylpiperidin-4-yl)-1H-pyrazol-4-yl]-7-aminofuro[2,3-c]pyridin-2-yl}phenyl)acetonitrile]: the concentration for half-maximal inhibition (IC50) in the assay with p-p38 in HCT-116 cells, with pJNK in HCT-116 cells and at TAK1-TAB1 fusion protein was 0.1 to 1 µM throughout.
Regarding `CC(=O)N1CCC(n2cc(-c3cnc(N)c4oc(-c5cccc6ccnn56)cc34)cn2)CC1` [Example 197, 1-(4-{4-[7-amino-2-(pyrazolo[1,5-a]pyridin-7-yl)furo[2,3-c]pyridin-4-yl]-1H-pyrazol-1-yl}piperidin-1-yl)ethanone], the IC50 in the assay with p-p38 in HCT-116 cells, with pJNK in HCT-116 cells and on TAK1-TAB1 fusion protein was 0.1 to 1 µM each time.
As for `CC(=O)N1CCC(n2cc(-c3cnc(N)c4oc(-c5cccc([N+](=O)[O-])c5)cc34)cn2)CC1` [Example 112, 1-(4-{4-[7-amino-2-(3-nitrophenyl)furo[2,3-c]pyridin-4-yl]-1H-pyrazol-1-yl}piperidin-1-yl)ethanone], the IC50 with p-p38 in HCT-116 cells was 0.1 to 1 µM; in the assay with pJNK in HCT-116 cells it was 0.1 to 1 µM; at TAK1-TAB1 fusion protein, < 0.1 µM.
In the case of `CC(=O)N1CCC(n2cc(-c3cnc(N)c4oc(-c5cccc6nn(C)cc56)cc34)cn2)CC1` [Example 192, 1-(4-{4-[7-amino-2-(2-methyl-2H-indazol-4-yl)furo[2,3-c]pyridin-4-yl]-1H-pyrazol-1-yl}piperidin-1-yl)ethanone], the IC50 in the assay on p-p38 in HCT-116 cells, with pJNK in HCT-116 cells and on TAK1-TAB1 fusion protein was 1 to 10 µM throughout.
With `CC(=O)N1CCC(n2cc(-c3cnc(N)c4oc(-c5ccc6[nH]ncc6c5)cc34)cn2)CC1` [Example 94, 1-(4-{4-[7-amino-2-(1H-indazol-5-yl)furo[2,3-c]pyridin-4-yl]-1H-pyrazol-1-yl}piperidin-1-yl)ethanone], the IC50 in the assay with p-p38 in HCT-116 cells lay within 1 to 10 µM; with pJNK in HCT-116 cells, 0.1 to 1 µM; at TAK1-TAB1 fusion protein, 0.1 to 1 µM.
As to `CC(=O)N1CCC(n2cc(-c3cnc(N)c4oc(-c5ccc6[nH]nc(C#N)c6c5)cc34)cn2)CC1` [Example 236, 5-{4-[1-(1-acetylpiperidin-4-yl)-1H-pyrazol-4-yl]-7-aminofuro[2,3-c]pyridin-2-yl}-1H-indazole-3-carbonitrile], the IC50 with p-p38 in HCT-116 cells was > 10 µM; in the assay with pJNK in HCT-116 cells, 1 to 10 µM; on TAK1-TAB1 fusion protein, 0.1 to 1 µM.
The like results for `CC(C)n1cc(-c2cnc(N)c3oc(-c4cccc5cnccc45)cc23)cn1` [Example 60, 2-(isoquinolin-5-yl)-4-[1-(propan-2-yl)-1H-pyrazol-4-yl]furo[2,3-c]pyridin-7-amine] were, in that order, 0.1 to 1 µM, 0.1 to 1 µM and 0.1 to 1 µM.
As for `CC(=O)N1CCC(n2cc(-c3cnc(N)c4oc(-c5ccc6[nH]nnc6c5)cc34)cn2)CC1` [Example 158, 1-(4-{4-[7-amino-2-(1H-benzotriazol-5-yl)furo[2,3-c]pyridin-4-yl]-1H-pyrazol-1-yl}piperidin-1-yl)ethanone], the IC50 in the assay with p-p38 in HCT-116 cells is > 10 µM; in the assay on pJNK in HCT-116 cells it was > 10 µM; at TAK1-TAB1 fusion protein, < 0.1 µM.
For the compound `Nc1ncc(-c2cnn([C@H]3CC[C@H](O)CC3)c2)c2cc(-c3cccc4cnccc34)oc12` [Example 65, trans-4-{4-[7-amino-2-(isoquinolin-5-yl)furo[2,3-c]pyridin-4-yl]-1H-pyrazol-1-yl}cyclohexanol], the IC50 with p-p38 in HCT-116 cells was 0.1 to 1 µM; in the assay with pJNK in HCT-116 cells, < 0.1 µM; at TAK1-TAB1 fusion protein it was 0.1 to 1 µM.

A word on the IC50: it is the concentration that gives 50% inhibition.
